Test results as given in PubChem BioAssay AID463203 (Broad Institute, 2010).
Calls of active or inactive are those of the source.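 The calls were made as follows: active = more than half of replicate measurements showing over 20% loss of kinase signal relative to plate controls; inconclusive = some but at most half of replicates over 20% loss; inactive = no replicate over 20% signal loss.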

Target: Glycogen synthase kinase-3 alpha (Homo sapiens) (UniProt P49840)
Assay: concentration-response blocking of human GSK3A – biochemical, luminescence, cell-free homogeneous, retest, dose response (AID 463203)
Settings: GSK-3 alpha enzyme, ADP-Glo luminescence, 60 min

Sequence of Glycogen synthase kinase-3 alpha (Homo sapiens) (P49840 whole entry, looked up): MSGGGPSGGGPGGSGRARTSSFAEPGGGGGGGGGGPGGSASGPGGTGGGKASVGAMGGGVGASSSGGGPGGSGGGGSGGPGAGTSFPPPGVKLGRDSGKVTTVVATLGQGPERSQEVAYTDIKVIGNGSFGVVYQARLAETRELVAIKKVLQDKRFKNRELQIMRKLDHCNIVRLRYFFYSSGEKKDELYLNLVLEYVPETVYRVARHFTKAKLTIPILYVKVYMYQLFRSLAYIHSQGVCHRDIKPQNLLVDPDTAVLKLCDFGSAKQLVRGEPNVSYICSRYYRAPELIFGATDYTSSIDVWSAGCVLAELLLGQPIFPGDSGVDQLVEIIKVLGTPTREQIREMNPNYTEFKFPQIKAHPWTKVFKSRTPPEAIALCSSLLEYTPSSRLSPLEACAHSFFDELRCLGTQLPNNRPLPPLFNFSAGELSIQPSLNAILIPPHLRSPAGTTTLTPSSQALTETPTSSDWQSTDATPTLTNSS

Compound | AC50
CC1=C(C(=O)Nc2cccc(F)c2)C(c2ccsc2)C2=C(CC(C)(C)CC2=O)N1 (stereo not given) | > 30 µM (inactive)
Nc1nc(N)nc(-c2cc([N+](=O)[O-])ccc2O)n1 | 2.41 µM
COc1ccc2nc(NC(=O)CSc3nnc(-c4ccoc4C)n3C)sc2c1 | 4.62 µM
CC(=O)Nc1n[nH]c(-c2ccc(C)cc2)c1C | > 30 µM (inactive)
N#C/C(=N\Nc1ccccc1Cl)C(=O)c1ccccc1 | > 30 µM (inactive)
COc1ccc(OC)c(C2CC(=O)Nc3n[nH]c(-c4ccccc4)c32)c1 (stereo not given) | > 30 µM (inactive)
O=C(Nc1cccc(-c2cnc3ccccc3n2)c1)c1cccc(NC(=O)c2ccco2)c1 | > 30 µM (inactive)
COc1ccc(C(=O)c2c(C(F)(F)F)oc3c2C(=O)c2ccccc2C3=O)cc1 | > 30 µM (inactive)
c1ccc(N2CCN(c3nc4ccccc4n4cnnc34)CC2)cc1 | > 30 µM (inactive)
CC(C)OCCCNc1nc2c([nH]1)c(=O)n(C)c(=O)n2C | > 30 µM (inactive)
CCCCC(NS(=O)(=O)c1ccc(OC)cc1)C(=O)O (stereo not given) | > 30 µM (inactive)
FC(F)(F)c1cnc(N/N=C/c2ccncc2)c(Cl)c1 | > 30 µM (inactive)
O=C(CSc1nnc(-c2ccc(O)cc2)o1)Nc1cccc(O)c1 | 21.6 µM
CN(C)/N=C/c1cn(-c2ccccc2)nc1-c1cccnc1 | > 30 µM (inactive)
Nc1nc(-c2ccccc2)nc(-c2ccccc2O)n1 | 21.4 µM
O=C(c1ccco1)c1cn(CC(=O)N2CCCCC2)c2ccccc12 | > 30 µM (inactive)
O=C(COC(=O)c1cc([N+](=O)[O-])ccc1N1CCOCC1)Nc1ccc(Cl)cn1 | 4.79 µM
COCc1nnc(NC(=O)CCN2C(=O)c3ccccc3C2=O)s1 | > 30 µM (inactive)
CN(C(=O)CN1CC=C(c2ccccc2)CC1)c1c(N)n(Cc2ccccc2)c(=O)[nH]c1=O | > 30 µM (inactive)
COc1ccc(CCNC(=O)CSc2nc3[nH]ncc3c(=O)n2-c2ccccc2OC)cc1OC | 1.89 µM
CCOC(=O)CSc1nc(N)c(C#N)c(-c2cccs2)c1C#N | > 30 µM (inactive)
CCc1ccc(/C=c2\s/c(=C\C(=O)C(C)(C)C)[nH]c2=O)cc1 | > 30 µM (inactive)
c1cncc(CSc2nnc3ccc(-c4cccs4)nn23)c1 | 14.4 µM
COc1ccc(S(=O)(=O)N[C@@H](CC(C)C)C(=O)O)cc1 | > 30 µM (inactive)
CC(C)(C)NC(=O)/C(=C\c1ccccc1F)NC(=O)c1ccc([N+](=O)[O-])cc1 | > 30 µM (inactive)
COc1c(C)cc(Br)cc1C(=O)Nc1cccc(NC(=O)c2ccco2)c1 | > 30 µM (inactive)
CCOC(=O)c1c2c(n(C)c1C)C(=O)C(=O)c1ccc(Br)cc1-2 | 15 µM

Compound | AC50
Nc1nc2n(n1)C(c1ccc(Cl)cc1)CC(c1ccc(F)cc1)N2 (stereo not given) | > 30 µM (inactive)
NC(=O)Cn1cc(/C=N\NS(=O)(=O)c2cccc([N+](=O)[O-])c2)c2ccccc21 | > 30 µM (inactive)
CN(C)C=NC(=O)/C(C#N)=C/c1ccccc1 | > 30 µM (inactive)
CCNc1nc(NCC)nc(C(=O)OCCO)n1 | > 30 µM (inactive)
Cc1cc(C(=O)c2cccs2)c(N)s1 | 15.6 µM
CCCCc1ccc(NC(=O)N[C@H](C(=O)O)C(C)CC)cc1 (stereo not given in full) | > 30 µM (inactive)
COc1ccc(C(=O)c2cc(C(C)=O)c(Nc3ccccc3)s2)cc1 | > 30 µM (inactive)
COC(=O)[C@@H](NC(=O)NCc1ccc(F)cc1)C(C)C | > 30 µM (inactive)
C[C@@H]1O[C@@H](Oc2c(-c3ccc(O)c(O)c3)oc3cc(O)cc(O)c3c2=O)[C@H](O)[C@H](O)[C@H]1O | 29.8 µM
CN1CCN(c2ccc(NC(=O)c3ccc(Br)o3)cc2)CC1 | > 30 µM (inactive)
CC1(C)OC2OC(COC(=O)c3ccccc3)C3OC(C)(C)OC3C2O1 (stereo not given) | > 30 µM (inactive)
CC1=C(C(=O)OC(C)C)C(c2cccs2)n2ncnc2N1 (stereo not given) | 28.8 µM
O=C(NCCCN1CCOCC1)c1ccc(Cl)c([N+](=O)[O-])c1 | > 30 µM (inactive)
Cc1cc(NC(=O)c2sc(Nc3ccc(F)cc3)nc2N)no1 | 8.04 µM
COc1ccc(OCC(=O)Nc2ccc3c(c2)C(=O)NC3=O)cc1 | 12.2 µM
Oc1cccc(Nc2c3ccccc3nc3ccccc23)c1 | > 30 µM (inactive)
CN(C)CCCNc1ccc(S(N)(=O)=O)cc1[N+](=O)[O-] | > 30 µM (inactive)
Cc1c(C(=O)N2CCN(c3ccccc3)CC2)oc2c(Cl)cccc12 | > 30 µM (inactive)
COc1ccc(NC(=O)c2ccc(NCC3CCCO3)c([N+](=O)[O-])c2)cc1 (stereo not given) | > 30 µM (inactive)
COc1ccc2nc(NC(=O)CN3CCN(C)CC3)sc2c1 | > 30 µM (inactive)
CCCCN(CCCC)c1cn[nH]c(=O)c1Cl | 11.2 µM
CCOc1nc(NCCN2CCOCC2)nc(Nc2ccc([N+](=O)[O-])cc2)n1 | > 30 µM (inactive)
COc1cc(C2c3sc(=O)[nH]c3SC3C4CCC(C4)C23)ccc1O (stereo not given) | 1.22 µM
CNS(=O)(=O)c1cccc(C(=O)OCC(=O)Nc2ccc(Cl)cn2)c1 | 6.77 µM
O=C(Nc1ccc(C(=O)NC2CCCCC2)cc1)c1cccnc1 | > 30 µM (inactive)
O=C(CSCc1ccccn1)Nc1ccccc1 | > 30 µM (inactive)
CCc1ccc(/C=N/NC(=O)c2nnn(-c3nonc3N)c2C(C)C)cc1 | > 30 µM (inactive)

Compound | AC50
CCS(=O)(=O)N1CCN(c2ccnc3cc(Cl)ccc23)CC1 | > 30 µM (inactive)
N#C/C(=N\Nc1c(Cl)cccc1Cl)C(=O)NN | 5.86 µM
COC(=O)c1cc(O)c(OCc2ccccc2)c(O)c1 | > 30 µM (inactive)
Brc1ccc(-c2nc3ncccn3c2NC2CCCCC2)o1 | 2.61 µM
Cc1ccc(Cn2cc(/C=N/Nc3ccc([N+](=O)[O-])cn3)c3ccccc32)cc1 | > 30 µM (inactive)
Cc1c(O)ccc2c3c(c(=O)oc12)CCCC3 | 6.63 µM
O=C(Cn1c(NCCO)nc2ccccc21)NCC1CCCO1 (stereo not given) | > 30 µM (inactive)
Cc1nc(NCCc2ccccc2)c(C#N)c(C)c1[N+](=O)[O-] | > 30 µM (inactive)
COc1ccccc1N/C=C/c1onc(C)c1[N+](=O)[O-] | > 30 µM (inactive)
NC1=NC(=O)/C(=C/c2cccs2)S1 | > 30 µM (inactive)
O=C(c1coc2ccc(O)c(CN3CCOCC3)c12)C1CC1 | 22.8 µM
Cc1ccc(-c2cn3cccnc3n2)cc1NC(=O)c1cccs1 | > 30 µM (inactive)
CCOc1ccc(Cn2nnc(C(=O)Nc3ccc(OC)cc3OC)c2N)cc1 | > 30 µM (inactive)
Cc1ccc(C(=O)O/N=C(\N)c2cccc([N+](=O)[O-])c2)cc1 | > 30 µM (inactive)
Clc1ccc(C2=Nn3c(nnc3-c3cccnc3)SC2)s1 | > 30 µM (inactive)
CCOc1cc(/C=C2\N=C3CCCCCN3C2=O)ccc1O | 19.3 µM
CCOC(=O)N1CCC(NC(=O)CCc2nc(C3=CCN(C)CC3)no2)CC1 | > 30 µM (inactive)
C/C(=N\NC(=O)c1nnn(-c2nonc2N)c1-c1cccs1)c1cccnc1 | 1.33 µM
Cc1ccc(-c2nnc3n2N=C(c2ccccc2Br)CS3)cc1 | > 30 µM (inactive)
Cc1ccc(S(=O)(=O)CCSc2n[nH]c(=O)n2-c2ccccc2)cc1 | 11.8 µM
COc1ccc([N+](=O)[O-])cc1NC(=O)CCN1CCN(C)CC1 | > 30 µM (inactive)
CCOc1cc(/C=C2\SC(N3CCCC(C)C3)=NC2=O)ccc1O (stereo not given) | 8.87 µM
COCCNc1nnc(SCC(=O)NC2CCCCC2)s1 | > 30 µM (inactive)
CC1CCC2(CC1)NC(=O)N(CC(=O)Nc1ccc(C(N)=O)cc1)C2=O (stereo not given) | > 30 µM (inactive)
O=C(O)Cn1c(=O)c2c3c(sc2n(Cc2ccc(Cl)cc2Cl)c1=O)CCCC3 | > 30 µM (inactive)
Cc1ccc(C(=O)Nc2nnc(C)s2)cc1 | > 30 µM (inactive)
CCc1cc(C(=O)OC)c(NC(=O)CN2CCN(C(=O)c3ccco3)CC2)s1 | > 30 µM (inactive)

Compound | AC50
O=C(Nc1sc2c(c1C(=O)N1CCOCC1)CCCCC2)c1cccnc1 | > 30 µM (inactive)
NCCNc1ccc([N+](=O)[O-])c(NC2CC2)c1 | > 30 µM (inactive)
CCn1c2ccccc2c2nc3ccccc3nc21 | > 30 µM (inactive)
O=C(O)CCNc1ccc(NCCC(=O)O)c2c1C(=O)c1ccccc1C2=O | 22.7 µM
CC(C)NC(=O)NC(=O)CSc1nncn1C | > 30 µM (inactive)
CC1(C)CC(=O)C(C2c3ccccc3S(=O)(=O)c3ccccc32)C(=O)C1 | > 30 µM (inactive)
CN(Cc1c(C(=O)N/N=C/c2cccc(O)c2)nnn1-c1nonc1N)c1ccccc1 | 2.8 µM
COc1ccc(S(=O)(=O)NC(C)C(=O)O)cc1 (stereo not given) | > 30 µM (inactive)
Cn1c(O)c(C=NCCc2c[nH]c3ccccc23)c(=O)n(C)c1=O | 27.9 µM
S=C(Nc1ccc2c(c1)OCCO2)Nc1ccccc1Cl | > 30 µM (inactive)
O=C(COc1ccccc1Cl)NC1CC1 | > 30 µM (inactive)
Cn1c(SCC(=O)N/N=C/C=C/c2ccco2)nc2ccccc21 | > 30 µM (inactive)
Cc1ccc(C(=O)c2cnc3cc4c(cc3c2S(=O)(=O)c2ccccc2)OCCO4)cc1 | > 30 µM (inactive)
Cc1ccc(S(=O)(=O)Nc2cccc3ncccc23)cc1 | > 30 µM (inactive)
CCN1CCN(c2c(Cl)cccc2NC(=O)c2cc3ccccc3o2)CC1 | > 30 µM (inactive)
COCCCNC(=O)C(=O)NC1CCCCCC1 | > 30 µM (inactive)
Cn1cnc(C(=O)NC2CCN(C(=O)OC(C)(C)C)CC2)c1C(=O)NC1CCN(C(=O)OC(C)(C)C)CC1 | > 30 µM (inactive)
N#Cc1sc2nc3c(c(-c4ccco4)c2c1N)CCCC3 | 2.42 µM
Nc1ncc([N+](=O)[O-])s1 | > 30 µM (inactive)
Nc1nc(SCC(=O)Nc2ccc(Oc3ccccc3)cc2)n[nH]1 | > 30 µM (inactive)
Clc1ccc(Nc2ncn[nH]2)cc1 | > 30 µM (inactive)
C[C@H](CO)N1C[C@H](C)[C@@H](CN(C)S(=O)(=O)c2ccccc2)Oc2c(NS(=O)(=O)c3ccc(F)cc3)cccc2C1=O | > 30 µM (inactive)
CCN(CC)CCCNc1nc(N)c([N+](=O)[O-])c(N2CCCCCC2)n1 | 29.6 µM
O=C(CSc1nc2[nH]ncc2c(=O)n1-c1ccccc1Br)NCc1ccccc1Cl | > 30 µM (inactive)
